Test: xn = mol fraction of the nth substance listed

Cc1ccccc1 + CO
Conditions | viscosity [mPa·s]
293.15 K, 101 kPa, x1 = 0.0405 | 0.5903
293.15 K, 101 kPa, x1 = 0.0868 | 0.5951
293.15 K, 101 kPa, x1 = 0.1401 | 0.6009
293.15 K, 101 kPa, x1 = 0.2022 | 0.6067
293.15 K, 101 kPa, x1 = 0.2755 | 0.6121
293.15 K, 101 kPa, x1 = 0.3632 | 0.6167
293.15 K, 101 kPa, x1 = 0.4701 | 0.6194
293.15 K, 101 kPa, x1 = 0.6033 | 0.6184
293.15 K, 101 kPa, x1 = 0.7739 | 0.6098
293.15 K, 101 kPa, x2 = 0.2 | 0.582
293.15 K, 101 kPa, x2 = 0.4 | 0.601
293.15 K, 101 kPa, x2 = 0.6 | 0.62
293.15 K, 101 kPa, x2 = 0.8 | 0.623
293.16 K, 101 kPa, x2 = 0.7465 | 0.6073
293.16 K, 101 kPa, x2 = 0.8178 | 0.6149
293.16 K, 101 kPa, x2 = 0.9632 | 0.6049
298.15 K, 101 kPa, x1 = 0.0405 | 0.552
298.15 K, 101 kPa, x1 = 0.0868 | 0.5572
298.15 K, 101 kPa, x1 = 0.1401 | 0.5628
298.15 K, 101 kPa, x1 = 0.2022 | 0.5679
298.15 K, 101 kPa, x1 = 0.2755 | 0.573
298.15 K, 101 kPa, x1 = 0.3632 | 0.5779
298.15 K, 101 kPa, x1 = 0.4701 | 0.5803
298.15 K, 101 kPa, x1 = 0.6033 | 0.5796
298.15 K, 101 kPa, x1 = 0.7739 | 0.5809
298.15 K, 101 kPa, x2 = 0.0499 | 0.551
298.15 K, 101 kPa, x2 = 0.0998 | 0.547
298.15 K, 101 kPa, x2 = 0.1993 | 0.54
298.15 K, 101 kPa, x2 = 0.2269 | 0.5998
298.15 K, 101 kPa, x2 = 0.2998 | 0.541
298.15 K, 101 kPa, x2 = 0.3977 | 0.6168
298.15 K, 101 kPa, x2 = 0.4007 | 0.55
298.15 K, 101 kPa, x2 = 0.4998 | 0.557
298.15 K, 101 kPa, x2 = 0.5309 | 0.6284
298.15 K, 101 kPa, x2 = 0.6002 | 0.562
298.15 K, 101 kPa, x2 = 0.6377 | 0.6259
298.15 K, 101 kPa, x2 = 0.7 | 0.572
298.15 K, 101 kPa, x2 = 0.7252 | 0.6143
298.15 K, 101 kPa, x2 = 0.7983 | 0.599
298.15 K, 101 kPa, x2 = 0.8 | 0.569
298.15 K, 101 kPa, x2 = 0.8606 | 0.5847
298.15 K, 101 kPa, x2 = 0.9 | 0.561
298.15 K, 101 kPa, x2 = 0.9136 | 0.5831
298.15 K, 101 kPa, x2 = 0.9501 | 0.555
298.15 K, 101 kPa, x2 = 0.9597 | 0.5642
298.16 K, 101 kPa, x2 = 0.4032 | 0.5406
298.16 K, 101 kPa, x2 = 0.7442 | 0.5644
298.16 K, 101 kPa, x2 = 0.9625 | 0.5599
303 K, 101 kPa, x1 = 0.1006 | 0.549
303 K, 101 kPa, x1 = 0.2012 | 0.599
303 K, 101 kPa, x1 = 0.3009 | 0.585
303 K, 101 kPa, x1 = 0.3981 | 0.578
303 K, 101 kPa, x1 = 0.5016 | 0.573
303 K, 101 kPa, x1 = 0.6052 | 0.566
303 K, 101 kPa, x1 = 0.7001 | 0.562
303 K, 101 kPa, x1 = 0.8095 | 0.559
303 K, 101 kPa, x1 = 0.9011 | 0.537
303.15 K, 101.33 kPa, x1 = 0.0724 | 0.588
303.15 K, 101.33 kPa, x1 = 0.0912 | 0.531
303.15 K, 101.33 kPa, x1 = 0.1636 | 0.588
303.15 K, 101.33 kPa, x1 = 0.2105 | 0.539
303.15 K, 101.33 kPa, x1 = 0.2773 | 0.542
303.15 K, 101.33 kPa, x1 = 0.3517 | 0.569
303.15 K, 101.33 kPa, x1 = 0.3723 | 0.54
303.15 K, 101.33 kPa, x1 = 0.4963 | 0.529
303.15 K, 101.33 kPa, x1 = 0.5095 | 0.544
303.15 K, 101.33 kPa, x1 = 0.6126 | 0.539
303.15 K, 101.33 kPa, x1 = 0.6944 | 0.515
303.15 K, 101.33 kPa, x1 = 0.7321 | 0.532
303.15 K, 101.33 kPa, x1 = 0.8307 | 0.513
303.15 K, 101.33 kPa, x1 = 0.8541 | 0.527
303.15 K, 101.33 kPa, x1 = 0.888 | 0.516
303.15 K, 101.33 kPa, x1 = 0.9511 | 0.52
308.15 K, 101 kPa, x1 = 0.0405 | 0.4855
308.15 K, 101 kPa, x1 = 0.0868 | 0.4908
308.15 K, 101 kPa, x1 = 0.1401 | 0.4965
308.15 K, 101 kPa, x1 = 0.2022 | 0.5022
308.15 K, 101 kPa, x1 = 0.2755 | 0.5079
308.15 K, 101 kPa, x1 = 0.3632 | 0.5132
308.15 K, 101 kPa, x1 = 0.4701 | 0.517
308.15 K, 101 kPa, x1 = 0.6033 | 0.5188
308.15 K, 101 kPa, x1 = 0.7739 | 0.5021
308.15 K, 101.33 kPa, x1 = 0.0912 | 0.495
308.15 K, 101.33 kPa, x1 = 0.2105 | 0.502
308.15 K, 101.33 kPa, x1 = 0.2773 | 0.504
308.15 K, 101.33 kPa, x1 = 0.3723 | 0.502
308.15 K, 101.33 kPa, x1 = 0.4963 | 0.494
308.15 K, 101.33 kPa, x1 = 0.6944 | 0.482
308.15 K, 101.33 kPa, x1 = 0.8307 | 0.481
308.15 K, 101.33 kPa, x1 = 0.888 | 0.483
308.15 K, 101.33 kPa, x1 = 0.9511 | 0.488
313.15 K, 101.33 kPa, x1 = 0.0724 | 0.5
313.15 K, 101.33 kPa, x1 = 0.1636 | 0.503
313.15 K, 101.33 kPa, x1 = 0.3517 | 0.487
313.15 K, 101.33 kPa, x1 = 0.5095 | 0.485
313.15 K, 101.33 kPa, x1 = 0.6126 | 0.48
313.15 K, 101.33 kPa, x1 = 0.7321 | 0.475
313.15 K, 101.33 kPa, x1 = 0.8541 | 0.464
318.15 K, 101 kPa, x1 = 0.0405 | 0.4298
318.15 K, 101 kPa, x1 = 0.0868 | 0.4372
318.15 K, 101 kPa, x1 = 0.1401 | 0.4452
318.15 K, 101 kPa, x1 = 0.2022 | 0.4538
318.15 K, 101 kPa, x1 = 0.2755 | 0.4629
318.15 K, 101 kPa, x1 = 0.3632 | 0.4726
318.15 K, 101 kPa, x1 = 0.4701 | 0.4817
318.15 K, 101 kPa, x1 = 0.6033 | 0.4892
318.15 K, 101 kPa, x1 = 0.7739 | 0.4809
323.15 K, 101.33 kPa, x1 = 0.0724 | 0.433
323.15 K, 101.33 kPa, x1 = 0.1636 | 0.441
323.15 K, 101.33 kPa, x1 = 0.3517 | 0.407
323.15 K, 101.33 kPa, x1 = 0.5095 | 0.42
323.15 K, 101.33 kPa, x1 = 0.6126 | 0.413
323.15 K, 101.33 kPa, x1 = 0.7321 | 0.41
323.15 K, 101.33 kPa, x1 = 0.8541 | 0.408
